Results reported in US20240174690A1, “ANNULATED 2-AMINO-3-CYANO THIOPHENES AND DERIVATIVES FOR THE TREATMENT OF CANCER” (BOEHRINGER INGELHEIM INTERNATIONAL GMBH, priority 2021, published 2024).

Experiments:
KRAS (G12C)::SOS1 = KRAS (G12C)::SOS1 (Homo sapiens (Human), UniProt P01116, C118S/C51S/C80L/G12C); test: KRAS::SOS1 AlphaScreen binding assay, KRAS G12C
Excerpt: (§1) This assay can be used to examine the potency with which compounds according to the invention binding to (mutated) KRAS inhibit the protein-protein interaction between SOS1 and (mutated) KRAS e.g., KRAS WT, KRAS G12C, KRAS G12D, KRAS G12V, KRAS G13D. […] Low IC50 values in this assay setting are indicative of strong inhibition of protein-protein interaction between SOS1 and KRAS:
(§2) These assays measure the inhibitory effect of compounds on KRAS mutant protein-protein interactions using the Alpha Screen technology by Perkin Elmer.
(§3) The following (mutant) enzyme forms of KRAS and interacting proteins are used in these assays at the given concentrations: • KRAS (G12D) 1-169, N-terminal 6His-tag, C-terminal avi-tag (Xtal BioStructures, Inc.); final assay concentration 10 nM and SOS1 564-1049, N-terminal 229 GST-tag, TEV cleavage site (Viva Biotech Ltd); final assay concentration 5 nM; • KRAS (G12C) 1-169, N-terminal 6His-tag for purification, cleaved off, C-terminal avi-tag, biotinylated, mutations: C51S, C80L, C118S (in house); final assay concentration 7.5 nM and SOS1 564-1049, N-terminal 229 GST-tag, TEV cleavage site (Viva Biotech Ltd); final assay concentration 5 nM; • KRAS (G12V) 1-169, N-terminal 6His-tag for purification, cleaved off, C-terminal avi-tag, biotinylated, TEV cleavage site, mutation: C118S, GDP loaded (in house); final assay concentration 10 nM and SOS1 564-1049, N-terminal 229 GST-tag, TEV cleavage site (Viva Biotech Ltd); final assay concentration 10 nM; • KRAS (G13D) 1-169, N-terminal 6His-tag for purification, cleaved off, C-terminal avi-tag, biotinylated, TEV cleavage site, mutation: C118S, GDP loaded (in house); final assay concentration 10 nM and SOS1 564-1049, N-terminal 229 GST-tag, TEV cleavage site (Viva Biotech Ltd); final assay concentration 10 nM; • KRAS (WT) 1-169, N-terminal 6His-tag for purification, cleaved off, C-terminal avi-tag, biotinylated, TEV cleavage site, mutation: C118S, GDP loaded (in house); final assay concentration 10 nM and SOS1 564-1049, N-terminal 229 GST-tag, TEV cleavage site (Viva Biotech Ltd); final assay concentration 10 nM.
(§4) Test compounds dissolved in DMSO are dispensed onto assay plates (Proxiplate 384 PLUS, white, PerkinElmer; 6008289) using an Access Labcyte Workstation with the Labcyte Echo 55×. For the chosen highest assay concentration of 100 μM, 150 nL of compound solution are transferred from a 10 mM DMSO compound stock solution. A series of eleven fivefold dilutions per compound are transferred to the assay plate, compound dilutions are tested in duplicates. DMSO are added as backfill to a total volume of 150 nL.
(§5) The assays run on a fully automated robotic system in a darkened room below 100 Lux. To 150 nl of compound dilution 10 μl of a mix including KRAS mutant protein, SOS1 (final assay concentrations see above) and GDP nucleotide (Sigma G7127; final assay concentration 10 μM) in assay buffer (1×PBS, 0.1% BSA, 0.05% Tween 20) are added into columns 1-24.
(§6) After 30 minutes incubation time 5 μl of Alpha Screen bead mix in assay buffer are added into columns 1-23. Bead mix consists of AlphaLISA Glutathione Acceptor Beads (PerkinElmer, Cat No AL109) and AlphaScreen Streptavidin Donor Beads (PerkinElmer Cat No 6760002) in assay buffer at a final assay concentration of 10 μg/ml each.
(§7) Plates are kept at room temperature in a darkened incubator. After an additional 60 minutes incubation time the signal is measured in a PerkinElmer Envision HTS Multilabel Reader using the AlphaScreen specs from PerkinElmer.
(§8) Each plate contains up to 16 wells of a negative control depending on the dilution procedure (platewise or serial) (DMSO instead of test compound; with KRAS mutant::SOS1 GDP mix and bead mix; column 23) and 16 wells of a positive control (DMSO instead of test compound; with KRAS mutant::SOS1 GDP mix w/o bead mix; column 24).
(§9) As internal control known inhibitors of KRAS mutant::SOS1 interaction can be measured on each compound plate. […]

KRAS (G12D)::SOS1 = KRAS (G12D)::SOS1 (Homo sapiens (Human), UniProt P01116, G12D); test: KRAS::SOS1 AlphaScreen binding assay, KRAS G12D
Sequence of KRAS (G12D)::SOS1 (P01116 other isoform, or with tags, fused parts or gaps G12D): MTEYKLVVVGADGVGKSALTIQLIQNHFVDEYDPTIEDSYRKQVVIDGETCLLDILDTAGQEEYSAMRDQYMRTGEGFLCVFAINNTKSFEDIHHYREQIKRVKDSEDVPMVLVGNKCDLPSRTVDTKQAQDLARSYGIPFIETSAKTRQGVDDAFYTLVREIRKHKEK
Excerpt: as §1, §2, §3, §4, §5, §6, §7, §8, §9

[1] = Metabolic (microsomal) stability assay, human liver microsomes (HLM); type: in vitro ADME; details: predicted clearance as percent of liver blood flow, 1 μM
Description: The metabolic degradation of the test compound is assayed at 37° C. with pooled liver microsomes (mouse (MLM), rat (RLM) or human (HLM)). The final incubation volume of 48 μL pertime point contains TRIS buffer (pH 7.5; 0.1 M), magnesium chloride (6.5 mM), microsomal protein (0.5 mg/mL for mouse/rat, 1 mg/mL for human specimens) and the test compound at a final concentration of 1 μM. Following a short preincubation period at 37° C., the reactions are initiated by addition of 12 μL beta-nicotinamide adenine dinucleotide phosphate, reduced form (NADPH, 10 mM) and terminated by transferring an aliquot into solvent after different time points (0, 5, 15, 30, 60 min). Additionally, the NADPH-independent degradation is monitored in incubations without NADPH, terminated at the last time point by addition of acetonitrile. The quenched incubations are pelleted by centrifugation (4,000 rpm, 15 min). An aliquot of the supernatant is assayed by LC-MS/MS to quantify the concentration of parent compound in the individual samples.
In vitro intrinsic clearance (CLint, in vitro) is calculated from the time course of the disappearance of the test drug during the microsomal incubation. Each plot is fitted to the first-order elimination rate constant as C(t)═C0*exp(−ke*t), where C(t) and C0 are the concentration of unchanged test drug at incubation time t and that at preincubation and ke is the disappearance rate constant of the unchanged drug. Subsequently, CLint in vitro (μL min^−1·amount protein) values are converted to predicted CLint,in vivo (mL min^−1 kg^−1) from incubation parameters according to the equation CLint, in vivo=CLint, in vitro×(incubation volume (ml)/amount protein (mg))×(amount protein (mg)/g liver tissue)×(liver weight/body wt.).
For better across species comparison the predicted clearance is expressed as percent of the liver blood flow [% QH] (mL min^−1·kg^−1) in the individual species. In general, high stability (corresponding to low % QH) of the compounds across species is desired.

Sequence of KRAS (G12C)::SOS1 (P01116 other isoform, or with tags, fused parts or gaps G12C/C51S/C80L/C118S): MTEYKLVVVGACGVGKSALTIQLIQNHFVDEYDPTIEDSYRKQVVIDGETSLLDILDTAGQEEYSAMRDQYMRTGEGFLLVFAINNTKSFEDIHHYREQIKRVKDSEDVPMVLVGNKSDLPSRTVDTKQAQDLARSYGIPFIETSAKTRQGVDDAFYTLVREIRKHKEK

Structure (SMILES) | IC50 (KRAS (G12C)::SOS1) [nM] | IC50 (KRAS (G12D)::SOS1) [nM] | HLM QH [1] [%]
C[C@H](Oc1cc(N2CCCC2=O)nc(-c2noc3c2CCC[C@@]32CCCc3sc(N)c(C#N)c32)n1)[C@@H]1CCCN1C [II-73] | 3 | 2 | 53
C[C@H](Oc1cc(-c2cnn(C)c2)nc(-c2noc3c2CCC[C@@]32CCCc3sc(N)c(C#N)c32)n1)[C@@H]1CCCN1C [II-74] | 3 | 6 | <24
C[C@H](Oc1cc(-c2cncs2)nc(-c2noc3c2CCC[C@@]32CCCc3sc(N)c(C#N)c32)n1)[C@@H]1CCCN1C [II-80] | 7 | 7 | 30
CC(=O)N1CC=C(c2cc(O[C@@H](C)[C@@H]3CCCN3C)nc(-c3noc4c3CCC[C@@]43CCCc4sc(N)c(C#N)c43)n2)CC1 [II-81] | 3 | 5 | <24
C[C@H](Oc1cc(-c2cncnc2)nc(-c2noc3c2CCC[C@@]32CCCc3sc(N)c(C#N)c32)n1)[C@@H]1CCCN1C [II-82] | 3 | 6 | <24
C[C@H](Oc1cc(-c2ccn(C3COC3)n2)nc(-c2noc3c2CCC[C@@]32CCCc3sc(N)c(C#N)c32)n1)[C@@H]1C[C@H](F)CN1C [II-83] | 5 | 20 | 72
C[C@H](Oc1cc(-c2ccn(-c3ccsc3)n2)nc(-c2noc3c2CCC[C@@]32CCCc3sc(N)c(C#N)c32)n1)[C@@H]1CCCN1C [II-84] | 3 | 6 | <24
C[C@H](Oc1cc(-c2ccccn2)nc(-c2noc3c2CCC[C@@]32CCCc3sc(N)c(C#N)c32)n1)[C@@H]1CCCN1C [II-85] | 2 | 2 | 47
C[C@H](Oc1cc(-c2cnn(C)n2)nc(-c2noc3c2CCC[C@@]32CCCc3sc(N)c(C#N)c32)n1)[C@@H]1CCCN1C [II-86] | 2 | 5 | 35
C[C@H](Oc1cc(-c2cn[nH]c2)nc(-c2noc3c2CCC[C@@]32CCCc3sc(N)c(C#N)c32)n1)[C@@H]1CCCN1C [II-87] | 3 | 3 | <24
C[C@H](Oc1cc([C@H]2CCOC2)nc(-c2noc3c2CCC[C@@]32CCCc3sc(N)c(C#N)c32)n1)[C@@H]1CCCN1C [II-88] | 2 | 1 | 26
C[C@H](Oc1cc(-c2ccn(-c3ccccc3)n2)nc(-c2noc3c2CCC[C@@]32CCCc3sc(N)c(C#N)c32)n1)[C@@H]1CCCN1C [II-89] | 3 | 12 | <24
C[C@H](Oc1cc(N2CCc3cccnc32)nc(-c2noc3c2CCC[C@@]32CCCc3sc(N)c(C#N)c32)n1)[C@@H]1CCCN1C [II-90] | 7 | 21 | <24
CO[C@@H]1C[C@@H]([C@H](C)Oc2cc(-c3ccn(C)n3)nc(-c3noc4c3CCC[C@@]43CCCc4sc(N)c(C#N)c43)n2)N(C)C1 [II-91] | 2 | 4 | 46
C[C@H](Oc1cc(-n2cccc3cnnc2-3)nc(-c2noc3c2CCC[C@@]32CCCc3sc(N)c(C#N)c32)n1)[C@@H]1CCCN1C [II-92] | 5 | 14 | <24
C[C@H](Oc1cc(-n2ccnc2Cl)nc(-c2noc3c2CCC[C@@]32CCCc3sc(N)c(C#N)c32)n1)[C@@H]1CCCN1C [II-93] | 3 | 3 | 44
C[C@H](Oc1cc(C2COCCO2)nc(-c2noc3c2CCC[C@@]32CCCc3sc(N)c(C#N)c32)n1)[C@@H]1CCCN1C (stereo partly drawn) [II-95] | 2 | 2 | 37

Further compounds by falling IC50 (KRAS (G12C)::SOS1), results first:

IC50 (KRAS (G12C)::SOS1) [nM] | IC50 (KRAS (G12D)::SOS1) [nM] | HLM QH [1] [%] | Structure (SMILES)
2 | 2 | <24 | C[C@H](Oc1cc(-n2ccnc2)nc(-c2noc3c2CCC[C@@]32CCCc3sc(N)c(C#N)c32)n1)[C@@H]1CCCN1C [II-69]
2 | 2 | 61 | C[C@H](Oc1cc(-n2cncn2)nc(-c2noc3c2CCC[C@@]32CCCc3sc(N)c(C#N)c32)n1)[C@@H]1CCCN1C [II-70]
2 | 2 | <24 | C[C@H](Oc1cc(-c2cc[nH]n2)nc(-c2noc3c2CCC[C@@]32CCCc3sc(N)c(C#N)c32)n1)[C@@H]1CCCN1C [II-71]
2 | 2 | 41 | C[C@H](Oc1cc(N2CCCC3(COC3)C2)nc(-c2noc3c2CCC[C@@]32CCCc3sc(N)c(C#N)c32)n1)[C@@H]1CCCN1C [II-72]
2 | 1 | 38 | C[C@H](Oc1cc(N2CCN(C)C2=O)nc(-c2noc3c2CCC[C@@]32CCCc3sc(N)c(C#N)c32)n1)[C@@H]1CCCN1C [II-75]
2 | 3 | 31 | C[C@H](Oc1cc(C2CCOCC2)nc(-c2noc3c2CCC[C@@]32CCCc3sc(N)c(C#N)c32)n1)[C@@H]1CCCN1C [II-76]
2 | 1 | 34 | C[C@H](Oc1cc(N2CCOC3(COC3)C2)nc(-c2noc3c2CCC[C@@]32CCCc3sc(N)c(C#N)c32)n1)[C@@H]1CCCN1C [II-77]
2 | 4 | 35 | C[C@H](Oc1cc(-c2ccncc2)nc(-c2noc3c2CCC[C@@]32CCCc3sc(N)c(C#N)c32)n1)[C@@H]1CCCN1C [II-78]
2 | 2 | 45 | Cc1nccn1-c1cc(O[C@@H](C)[C@@H]2CCCN2C)nc(-c2noc3c2CCC[C@@]32CCCc3sc(N)c(C#N)c32)n1 [II-79]
1 | 1 | 48 | C[C@H](Oc1cc([C@@H]2CCOC2)nc(-c2noc3c2CCC[C@@]32CCCc3sc(N)c(C#N)c32)n1)[C@@H]1CCCN1C [II-94]
